{
  "source": "patent US20120021432A1",
  "about": "“Phosphorylated NF45 Biomarkers, Antibodies And Methods Of Using Same” (ArQule, Inc., priority 2010, published 2012)",
  "key": {"[1]": {"tested_on": "pNF45 (T388)", "experiment": "Western blot analysis for pNF45 (T388) in MIA PaCa-2 cells", "format": "cell-based, human", "conditions": "for induction of NF45 phosphorylation, pNF45 (T388) / time course of NF45 phosphorylation: MIA Paca-2 cells; for induction of NF45 phosphorylation, pNF45 (T388): various times; for time course of NF45 phosphorylation: up to 24 hrs", "from_the_text": "Cell culture and chemicals: MIA PaCa-2 cells were maintained in DMEM medium supplemented with 10% FBS. β-Lapachone and (S)-1′-(3-(4-(tert-butyl)phenoxy)-2-hydroxypropyl)-2H-spiro[naphtho[1,2-b][1,4]oxathiine-3,4′-piperidine]-5,6-dione were synthesized by ArQule, Inc. Doxorubicin, cisplatin, camptohethcin and NU7026 (DNA-PK inhibitor) were purchased from Sigma. KU55933 (ATM inhibitor) was purchased from EMD Chemicals.\nAntibody generation: Anti-pNF45 (T388) antibody was generated by Covance (Norwood, Mass.). Briefly, a peptide corresponding to amino acids 383 to 390 (EESME-T-QE) (SEQ ID NO: 2) of NF45 was phosphorylated at threonine 388 in vitro and then conjugated with KHL. Polyclonal antibody was produced from rabbit and passed through affinity column with unphosphorylated peptide and then purified through the column with phosphorylated peptide. Two batches of antibody were obtained: #438 and #439. All the experiments were carried out using #438. Monoclonal antibody are generated by utilizing SEQ ID NO:2 and the hybridoma method known in the art and described herein.\n(§1) Immunoprecipitation and Western Blot Analysis: Cell lysate was used for immunoprecipitation using anti-NF90 antibody (#612154, BD Biosciences) or IgG as negative control. Samples then were separated into two equal potions: one blotted with anti-pNF45(T388)(#438) and another for anti-NF45 (K-22) (sc-133817, Santa Cruz Biotechnology). Other antibodies used in this study are pATM(S1981)(# 200-301-400, Rockland), DNA-PKcs (MA-370-P0, Thermo Scientific), ATM(2C1) (GTX70103, GeneTex), DNA-PK (S2506) (ab18192, Abcam), DNA-PK (T2609) (ab18356, Abcam), pCHK2(T68) (#2661, CST), b-actin (#5441, Sigma), g-H2AX (A300-081A, Bethyl).\nKnockdown of NF45: Cells were transfected with NF45 On-target plus SMART pool (L-017599-00-0005, Thermo Fisher) or On-Target plus Control siRNA (200 nM, #D-001810-0X, Thermo Fisher) using Oligofectamine (#12252-011, Invitrogen). Cells were used for further examination after 48 hr post transfection.\nThreonine Phosphorylation of pNF45 in MIA PaCa-2 Cells is Responsive to β-Lapachone: MIA PaCa-2 cells were treated with or without β-Lapachone (4 μM) (“Agent A”) for 8 hrs and cell lysate was subjected to western blot analysis for the detection of pNF45(T388). […] Samples were then separated into two portions: one for detection of pNF45 (T388) and another for detection of total NF45. C. Cells were transfected with NF45 siRNA or control siRNA and then treated with or without β-Lapachone (4 μM) for 8 hrs.\nTime- and concentration-dependent pNF45 (T388) in response to β-Lapachone in MIA PaCa-2 cells: MIA PaCa-2 cells were treated with β-Lapachone (4 μM) (“Agent A”) for various times (A), or for 2 hrs at various concentrations of β-Lapachone (B). Western blot analysis was performed for the detection of pNF45 (T388) and NF45. […] Early induction of pNF45 (T388) was observed within 1 hr and reached peak level between 4 to 8 hrs.\nEffect of DNA damage agents on phosphorylation of NF45: To determine whether other DNA damage agents are able to regulate NF45, we treated MIA Paca-2 cells with or without doxorubicin (1 μM), cisplatin (10 μM) or camptothecin (10 μM) for various times. pNF45 (T388) was examined by western blot analysis."}, "[2]": {"tested_on": "pNF45 (T388)", "experiment": "Effect of ATM and DNA-PK inhibitors on NF45 phosphorylation by β-Lapachone in MIA PaCa-2 cells (Western blot)", "format": "cell-based, human", "conditions": "then β-Lapachone 4 μM 8 hrs in presence of inhibitor", "from_the_text": "as §1\n(§2) β-Lapachone-induced phosphorylation of NF45 is ATM- and DNA-PK-dependent: MIA PaCa-2 cells were pretreated with or without ATM inhibitor KU55933 (10 μM), or DNA-PK inhibitor NU7026 (20 μM), for 1 hr and then treated with β-Lapachone (4 μM) (“Agent A”) for 8 hrs in the presence of inhibitors. Western blot analysis was performed using specific antibodies."}, "[3]": {"tested_on": "pNF45 (T388)", "experiment": "Immunofluorescence staining of pNF45 (T388) in MIA PaCa-2 cells", "format": "cell-based, human", "protocol": "Immunofluorescent Staining: Cells were seeded in 8-well chamber slides and treated with or without β-Lapachone for various time periods and then fixed with 4% paraformaldhyde. pNF45 was detected using anti-pNF45(T388) antibody, and NF45 using anti-NF45 (K-22) antibody. Slides were mounted using Vectashield Mounting Medium with DAPI (#H-1200, Vector Laboratories) and images were obtained using Zeiss fluorescence microscope.\nImmunofluorescence staining pNF45 (T388) in response to β-Lapachone: MIA PaCa-2 cells were plated in 8-well chamber slides and treated with β-Lapachone (4 μM) (“Agent A”) for various times. Cells were fixed and stained for either pNF45 (A) or NF45 (B)."}, "[4]": {"tested_on": "ATM", "experiment": "Western blot, activation of ATM in β-Lapachone treated cells", "format": "cell-based, human", "conditions": "MIA PaCa-2 cells, coincides with induction of pNF45 (T388)", "from_the_text": "as §1, §2"}, "[5]": {"tested_on": "DNA-PK", "experiment": "Western blot, activation of DNA-PK in β-Lapachone treated cells", "format": "cell-based, human", "conditions": "MIA PaCa-2 cells, coincides with induction of pNF45 (T388)", "from_the_text": "as §1, §2"}, "[6]": {"tested_on": "CHK2", "experiment": "CHK2 phosphorylation in treated cells", "format": "cell-based", "from_the_text": "as §1"}, "[7]": {"tested_on": "g-H2AX", "experiment": "g-H2AX elevation in treated cells", "format": "cell-based", "from_the_text": "as §1"}, "[8]": {"tested_on": "DNA topoisomerase II", "conditions": "cited from earlier work"}, "[9]": {"tested_on": "human prostate and promyelocytic leukemia cancer cell lines", "conditions": "cited from earlier work"}, "[10]": {"tested_on": "Human breast and ovary carcinoma", "conditions": "cited from earlier work"}, "[11]": {"tested_on": "human ovarian cancer, human prostate cancer, human breast cancer, human multiple myeloma", "conditions": "single agent, xenotransplant mouse models; cited from earlier work"}, "[12]": {"conditions": "cited from earlier work"}, "[13]": {"tested_on": "cancer cells from a variety of tissues; normal cells from these tissues", "conditions": "cited from earlier work"}},
  "data": [
    {"compound": "N.N.[Cl][Pt][Cl]", "note": "[cisplatin]", "values": [
      {"measurement": "induction of NF45 phosphorylation, pNF45 (T388)", "setting": "[1]; 10 μM", "value": "not cisplatin induced NF45 phosphorylation"}
    ]},
    {"compound": "CC[C@@]1(O)C(=O)OCc2c1cc1n(c2=O)Cc2cc3ccccc3nc2-1", "note": "[camptothecin]", "values": [
      {"measurement": "time course of NF45 phosphorylation", "setting": "[1]; 10 μM", "value": "steadily increased up to 24 hrs"},
      {"measurement": "induction of NF45 phosphorylation, pNF45 (T388)", "setting": "[1]; 10 μM", "value": "induced NF45 phosphorylation"}
    ]},
    {"compound": "COc1cccc2c1C(=O)c1c(O)c3c(c(O)c1C2=O)C[C@@](O)(C(=O)CO)C[C@@H]3O[C@H]1C[C@H](N)[C@H](O)[C@H](C)O1", "note": "[doxorubicin]", "values": [
      {"measurement": "time course of NF45 phosphorylation", "setting": "[1]; 1 μM", "value": "steadily increased up to 24 hrs"},
      {"measurement": "induction of NF45 phosphorylation, pNF45 (T388)", "setting": "[1]; 1 μM", "value": "induced NF45 phosphorylation"}
    ]},
    {"compound": "O=c1cc(-c2cccc3c2Sc2ccccc2S3)oc(N2CCOCC2)c1", "note": "[KU55933]", "values": [
      {"measurement": "effect of ATM inhibitor on β-Lapachone-induced phosphorylation of NF45", "setting": "[2]; inhibitor 10 μM pretreated 1 hr", "value": "phosphorylation of NF45 induced by β-Lapachone is ATM and DNA-PK dependent"}
    ]},
    {"compound": "CC1(C)CCC2=C(O1)c1ccccc1C(=O)C2=O", "note": "[β-Lapachone, 3,4-dihydro-2,2-dimethyl-2H-naphtho[1,2-b]pyran-5,6-dione]", "values": [
      {"measurement": "time of early induction of pNF45 (T388)", "setting": "[1]; MIA PaCa-2 cells, 4 μM", "value": "≤ 1", "unit": "hr"},
      {"measurement": "time and concentration dependence of pNF45 (T388) induction", "setting": "[1]; MIA PaCa-2 cells, 4 μM for various times, or 2 hrs at various concentrations", "value": "time- and concentration-dependent manner"},
      {"measurement": "induction of pNF45 (T388)", "setting": "[1]; MIA PaCa-2 cells, 4 μM, 8 hrs", "value": "induced pNF45 (T388)"},
      {"measurement": "cellular location of induced pNF45 (T388)", "setting": "[3]; MIA PaCa-2 cells, 4 μM", "value": "primarily located in nuclei"},
      {"measurement": "time of induction of pNF45 (T388), immunofluorescence", "setting": "[3]; MIA PaCa-2 cells, 4 μM, various times", "value": "≤ 2", "unit": "hrs"},
      {"measurement": "pNF45 (T388) levels, immunofluorescence staining", "setting": "[3]; β-Lapachone treated cells, pNF45 (T388) antibody", "value": "significant increase"},
      {"measurement": "activation of ATM", "setting": "[4]", "value": "activation"},
      {"measurement": "activation of DNA-PK", "setting": "[5]", "value": "activation"},
      {"measurement": "CHK2 phosphorylation", "setting": "[6]", "value": "CHK2 phosphorylation"},
      {"measurement": "g-H2AX level", "setting": "[7]", "value": "g-H2AX elevation"},
      {"measurement": "inhibition of DNA topoisomerase II", "setting": "[8]", "value": "inhibits DNA topoisomerase II"},
      {"measurement": "induction of cell death", "setting": "[9]", "value": "induces cell death with characteristics of apoptosis"},
      {"measurement": "cytotoxic effect", "setting": "[10]", "value": "showed sensitivity of the cytotoxic effect of β-Lapachone without signs of apoptosis"},
      {"measurement": "number of tumors, tumor size, survival time", "setting": "[11]", "value": "decrease the number of tumors, reduce tumor size, or increase the survival time, or a combination of these"},
      {"measurement": "water solubility", "setting": "[12]", "value": "non-water soluble"},
      {"measurement": "cell death in cancer cells versus normal cells", "setting": "[13]", "value": "induces cell death in cancer cells from a variety of tissues without causing death of normal cells from these tissues"}
    ]},
    {"compound": "O=c1cc(N2CCOCC2)oc2c1ccc1ccccc12", "note": "[NU7026]", "values": [
      {"measurement": "effect of DNA-PK inhibitor on β-Lapachone-induced phosphorylation of NF45", "setting": "[2]; inhibitor 20 μM pretreated 1 hr", "value": "phosphorylation of NF45 induced by β-Lapachone is ATM and DNA-PK dependent"}
    ]}
  ]
}
